Measurements as given in the NIST ThermoML archive (doi:10.1016/j.jct.2013.11.021).
± gives the expanded uncertainty stated by the source.

Tests used:
[1] = mn = molality of the nth substance listed, in mol/kg; conditions: 101 kPa, Liquid; for speed of sound: Sing-around technique in a fixed-path interferometer; for mass density: Vibrating tube method
[2] = 313.15 K; 101 kPa; Liquid; Sing-around technique in a fixed-path interferometer

## O=C[O-].[NH3+]CCCO [3-hydroxypropylammonium formate] + O
[1]; 298.15 K, m1 = 0.1
  speed of sound: 1501.7 ± 2.1 m/s
  mass density: 998.637 ± 0.64 kg/m3
[1]; 298.15 K, m1 = 0.2
  speed of sound: 1507.7 ± 2.1 m/s
  mass density: 1000.2 ± 0.64 kg/m3
[1]; 298.15 K, m1 = 0.3
  speed of sound: 1513.5 ± 2.1 m/s
  mass density: 1001.76 ± 0.64 kg/m3
[1]; 298.15 K, m1 = 0.4
  speed of sound: 1519.7 ± 2.1 m/s
  mass density: 1003.33 ± 0.64 kg/m3
[1]; 303.15 K, m1 = 0.1
  speed of sound: 1513.4 ± 2.1 m/s
  mass density: 997.222 ± 0.63 kg/m3
[1]; 303.15 K, m1 = 0.2
  speed of sound: 1519 ± 2.1 m/s
  mass density: 998.76 ± 0.64 kg/m3
[1]; 303.15 K, m1 = 0.3
  speed of sound: 1524.4 ± 2.1 m/s
  mass density: 1000.3 ± 0.64 kg/m3
[1]; 303.15 K, m1 = 0.4
  speed of sound: 1530.3 ± 2.1 m/s
  mass density: 1001.84 ± 0.64 kg/m3
[1]; 308.15 K, m1 = 0.1
  speed of sound: 1523.7 ± 2.1 m/s
  mass density: 995.623 ± 0.63 kg/m3
[1]; 308.15 K, m1 = 0.2
  speed of sound: 1528.9 ± 2.1 m/s
  mass density: 997.068 ± 0.63 kg/m3
[1]; 308.15 K, m1 = 0.3
  speed of sound: 1533.9 ± 2.1 m/s
  mass density: 998.625 ± 0.64 kg/m3
[1]; 308.15 K, m1 = 0.4
  speed of sound: 1539.6 ± 2.1 m/s
  mass density: 999.944 ± 0.64 kg/m3
[1]; 313.15 K, m1 = 0.1
  speed of sound: 1532.4 ± 2.1 m/s
  mass density: 993.757 ± 0.63 kg/m3
[1]; 313.15 K, m1 = 0.2
  speed of sound: 1538.2 ± 2.1 m/s
  mass density: 995.252 ± 0.63 kg/m3
[1]; 313.15 K, m1 = 0.3
  speed of sound: 1542 ± 2.1 m/s
  mass density: 996.753 ± 0.63 kg/m3
[1]; 313.15 K, m1 = 0.4
  speed of sound: 1547.4 ± 2.1 m/s
  mass density: 998.26 ± 0.64 kg/m3
[1]; 318.15 K, m1 = 0.1
  speed of sound: 1539.7 ± 2.1 m/s
  mass density: 991.751 ± 0.63 kg/m3
[1]; 318.15 K, m1 = 0.2
  speed of sound: 1545.2 ± 2.1 m/s
  mass density: 993.147 ± 0.63 kg/m3
[1]; 318.15 K, m1 = 0.3
  speed of sound: 1548.6 ± 2.1 m/s
  mass density: 994.624 ± 0.63 kg/m3
[1]; 318.15 K, m1 = 0.4
  speed of sound: 1553.8 ± 2.1 m/s
  mass density: 996.183 ± 0.63 kg/m3

## O=C[C@H](O)[C@@H](O)[C@H](O)[C@H](O)CO [D-glucose] + O
[1]; 298.15 K, m1 = 0.04842
  speed of sound: 1499.3 ± 2.1 m/s
  mass density: 1000.33 ± 0.64 kg/m3
[1]; 298.15 K, m1 = 0.0976
  speed of sound: 1502.3 ± 2.1 m/s
  mass density: 1003.62 ± 0.64 kg/m3
[1]; 298.15 K, m1 = 0.1066
  speed of sound: 1502.9 ± 2.1 m/s
  mass density: 1004.22 ± 0.64 kg/m3
[1]; 298.15 K, m1 = 0.1235
  speed of sound: 1504 ± 2.1 m/s
  mass density: 1005.32 ± 0.65 kg/m3
[1]; 298.15 K, m1 = 0.1462
  speed of sound: 1505.4 ± 2.1 m/s
[1]; 298.15 K, m1 = 0.06669
  mass density: 1001.56 ± 0.64 kg/m3
[1]; 303.15 K, m1 = 0.04842
  speed of sound: 1512.1 ± 2.1 m/s
  mass density: 998.923 ± 0.64 kg/m3
[1]; 303.15 K, m1 = 0.06669
  speed of sound: 1513.2 ± 2.1 m/s
  mass density: 1000.14 ± 0.64 kg/m3
[1]; 303.15 K, m1 = 0.0976
  speed of sound: 1515.1 ± 2.1 m/s
  mass density: 1002.18 ± 0.64 kg/m3
[1]; 303.15 K, m1 = 0.1066
  speed of sound: 1515.6 ± 2.1 m/s
  mass density: 1002.77 ± 0.64 kg/m3
[1]; 303.15 K, m1 = 0.1235
  speed of sound: 1516.7 ± 2.1 m/s
  mass density: 1003.87 ± 0.64 kg/m3
[1]; 303.15 K, m1 = 0.1462
  speed of sound: 1518.1 ± 2.1 m/s
  mass density: 1005.34 ± 0.65 kg/m3
[1]; 308.15 K, m1 = 0.06669
  speed of sound: 1523.1 ± 2.1 m/s
  mass density: 998.498 ± 0.64 kg/m3
[1]; 308.15 K, m1 = 0.0976
  speed of sound: 1525 ± 2.1 m/s
  mass density: 1000.53 ± 0.64 kg/m3
[1]; 308.15 K, m1 = 0.1066
  speed of sound: 1525.5 ± 2.1 m/s
  mass density: 1001.12 ± 0.64 kg/m3
[1]; 308.15 K, m1 = 0.1235
  speed of sound: 1526.6 ± 2.1 m/s
  mass density: 1002.21 ± 0.64 kg/m3
[1]; 308.15 K, m1 = 0.04842
  mass density: 997.289 ± 0.64 kg/m3
[1]; 308.15 K, m1 = 0.1462
  mass density: 1003.67 ± 0.64 kg/m3
[1]; 313.15 K, m1 = 0.04842
  speed of sound: 1531.8 ± 2.1 m/s
  mass density: 995.463 ± 0.63 kg/m3
[1]; 313.15 K, m1 = 0.06669
  speed of sound: 1532.9 ± 2.1 m/s
  mass density: 996.672 ± 0.63 kg/m3
[1]; 313.15 K, m1 = 0.0976
  speed of sound: 1534.6 ± 2.1 m/s
  mass density: 998.7 ± 0.64 kg/m3
[1]; 313.15 K, m1 = 0.1066
  speed of sound: 1535.1 ± 2.1 m/s
  mass density: 999.285 ± 0.64 kg/m3
[1]; 313.15 K, m1 = 0.1235
  speed of sound: 1536.1 ± 2.1 m/s
  mass density: 1000.38 ± 0.64 kg/m3
[1]; 313.15 K, m1 = 0.1462
  speed of sound: 1537.3 ± 2.1 m/s
  mass density: 1001.84 ± 0.64 kg/m3
[1]; 318.15 K, m1 = 0.06669
  speed of sound: 1539.7 ± 2.1 m/s
  mass density: 994.638 ± 0.63 kg/m3
[1]; 318.15 K, m1 = 0.0976
  speed of sound: 1541.4 ± 2.1 m/s
  mass density: 996.647 ± 0.63 kg/m3
[1]; 318.15 K, m1 = 0.1066
  speed of sound: 1541.9 ± 2.1 m/s
  mass density: 997.23 ± 0.64 kg/m3
[1]; 318.15 K, m1 = 0.1235
  speed of sound: 1542.8 ± 2.1 m/s
  mass density: 998.311 ± 0.64 kg/m3
[1]; 318.15 K, m1 = 0.04842
  mass density: 993.441 ± 0.63 kg/m3
[1]; 318.15 K, m1 = 0.1462
  mass density: 999.761 ± 0.64 kg/m3

## O=C[C@H](O)[C@H](O)[C@H](O)CO [D-ribose] + O
[1]; 298.15 K, m1 = 0.0504
  speed of sound: 1498.8 ± 2.1 m/s
  mass density: 999.789 ± 0.64 kg/m3
[1]; 298.15 K, m1 = 0.06883
  speed of sound: 1499.8 ± 2.1 m/s
  mass density: 1000.78 ± 0.64 kg/m3
[1]; 298.15 K, m1 = 0.08626
  speed of sound: 1500.7 ± 2.1 m/s
  mass density: 1001.7 ± 0.64 kg/m3
[1]; 298.15 K, m1 = 0.1107
  speed of sound: 1502 ± 2.1 m/s
  mass density: 1003 ± 0.64 kg/m3
[1]; 298.15 K, m1 = 0.136
  speed of sound: 1503.3 ± 2.1 m/s
  mass density: 1004.33 ± 0.64 kg/m3
[1]; 298.15 K, m1 = 0.1566
  speed of sound: 1504.4 ± 2.1 m/s
  mass density: 1005.39 ± 0.64 kg/m3
[1]; 303.15 K, m1 = 0.0504
  speed of sound: 1511.5 ± 2.1 m/s
  mass density: 998.382 ± 0.63 kg/m3
[1]; 303.15 K, m1 = 0.06883
  speed of sound: 1512.3 ± 2.1 m/s
  mass density: 999.363 ± 0.64 kg/m3
[1]; 303.15 K, m1 = 0.08626
  speed of sound: 1513.1 ± 2.1 m/s
  mass density: 1000.29 ± 0.64 kg/m3
[1]; 303.15 K, m1 = 0.1107
  speed of sound: 1514.3 ± 2.1 m/s
  mass density: 1001.58 ± 0.64 kg/m3
[1]; 303.15 K, m1 = 0.136
  speed of sound: 1515.5 ± 2.1 m/s
  mass density: 1002.89 ± 0.64 kg/m3
[1]; 303.15 K, m1 = 0.1566
  speed of sound: 1516.5 ± 2.1 m/s
  mass density: 1003.96 ± 0.64 kg/m3
[1]; 308.15 K, m1 = 0.0504
  speed of sound: 1521.3 ± 2.1 m/s
  mass density: 996.751 ± 0.63 kg/m3
[1]; 308.15 K, m1 = 0.06883
  speed of sound: 1522.2 ± 2.1 m/s
  mass density: 997.73 ± 0.63 kg/m3
[1]; 308.15 K, m1 = 0.08626
  speed of sound: 1523 ± 2.1 m/s
  mass density: 998.651 ± 0.64 kg/m3
[1]; 308.15 K, m1 = 0.1107
  speed of sound: 1524.1 ± 2.1 m/s
  mass density: 999.932 ± 0.64 kg/m3
[1]; 308.15 K, m1 = 0.136
  speed of sound: 1525.3 ± 2.1 m/s
  mass density: 1001.25 ± 0.64 kg/m3
[1]; 308.15 K, m1 = 0.1566
  speed of sound: 1526.3 ± 2.1 m/s
  mass density: 1002.31 ± 0.64 kg/m3
[1]; 313.15 K, m1 = 0.0504
  speed of sound: 1531.3 ± 2.1 m/s
  mass density: 994.911 ± 0.63 kg/m3
[1]; 313.15 K, m1 = 0.06883
  speed of sound: 1532.1 ± 2.1 m/s
  mass density: 995.882 ± 0.63 kg/m3
[1]; 313.15 K, m1 = 0.08626
  speed of sound: 1532.9 ± 2.1 m/s
  mass density: 996.793 ± 0.63 kg/m3
[1]; 313.15 K, m1 = 0.1107
  speed of sound: 1534 ± 2.1 m/s
  mass density: 998.065 ± 0.63 kg/m3
[1]; 313.15 K, m1 = 0.136
  speed of sound: 1535.1 ± 2.1 m/s
  mass density: 999.37 ± 0.64 kg/m3
[1]; 313.15 K, m1 = 0.1566
  speed of sound: 1536 ± 2.1 m/s
  mass density: 1000.41 ± 0.64 kg/m3
[1]; 318.15 K, m1 = 0.0504
  speed of sound: 1538.2 ± 2.1 m/s
  mass density: 992.887 ± 0.63 kg/m3
[1]; 318.15 K, m1 = 0.06883
  speed of sound: 1539 ± 2.1 m/s
  mass density: 993.852 ± 0.63 kg/m3
[1]; 318.15 K, m1 = 0.08626
  speed of sound: 1539.7 ± 2.1 m/s
  mass density: 994.758 ± 0.63 kg/m3
[1]; 318.15 K, m1 = 0.1107
  speed of sound: 1540.7 ± 2.1 m/s
  mass density: 996.017 ± 0.63 kg/m3
[1]; 318.15 K, m1 = 0.136
  speed of sound: 1541.8 ± 2.1 m/s
  mass density: 997.311 ± 0.63 kg/m3
[1]; 318.15 K, m1 = 0.1566
  speed of sound: 1542.7 ± 2.1 m/s
  mass density: 998.355 ± 0.63 kg/m3

## O [water]
[2]
  speed of sound: 1528.9 ± 2.1 m/s
